Measurements published in patent US9409952B2, “Peptide-compound cyclization method” (Chugai Seiyaku Kabushiki Kaisha, priority 2011, dated 2016).
Like-named read-outs stand apart in the source and are kept apart here. Starred links: 1 amine or outer side, 2 acyl side, 3 side chain; linkers in the order of their positions; H or OH if unused. Positions of bridges follow the written chain, without caps; N, C: chain ends. Non-standard residues stand in square brackets, D forms with d. Residues, ends and D or L forms follow the SMILES beside them. *: point of attachment. NMeF = CN[C@@H](Cc1ccccc1)C(=O)O; NMeI = CC[C@H](C)[C@H](NC)C(=O)O; NMeβAla = CN(CCC(=O)[*:2])[*:1]; NMeL = CN[C@@H](CC(C)C)C(=O)O; NMeV = CN[C@H](C(=O)O)C(C)C; NMeA = CN[C@@H](C)C(=O)O; Piperidide = C1CCN(*)CC1; dNMeA = CN[C@H](C)C(=O)O; Sar = CNCC(=O)O; tBu = CC(C)(C)*

Assays:
[1] = PAMPA (parallel artificial membrane permeability assay); format: in vitro ADME; conditions: PAMPA
Outline: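 Artificial membrane was 10% (w/v) egg lecithin plus 0.5% (w/v) cholesterol in dodecane on a PVDF filter. A 10 mM DMSO stock was added at 0.5% (v/v) to donor buffer (50 mM MOPSO, pH 6.5, 5.0% glycocholic acid). After 18 h at 37 °C, LC/MS or LC/UV gave donor and acceptor levels for Pe.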

[2] = Metabolic stability in human hepatic microsome; format: in vitro ADME
[3] = membrane permeation rate (Pe), 50 mM MOPSO buffer pH 6.5 with 5.0% glycocholic acid, 37° C., 18 hours, read-out: iPAMPA Pe
[4] = microsomes, pH 7.4, human hepatic microsome, NADPH(+), read-out: CL NADPH(+)

SMILES | Papp at 18 hours, 50 µM [1, 3] [×10⁻⁶ cm/s] | microsomal CLint at 1 uM [2, 4] [µL/min/mg] | microsomal CLint at 1 uM ([2]; human, liver microsomes, pH 7.4, human hepatic microsome, NADPH(+), read-out: CL NADPH(+)) [µL/min/mg] | Papp at 18 hours, 50 µM ([1]; pH 6.5) [×10⁻⁶ cm/s] | microsomal CLint at 1 uM ([2]; human, microsomes, pH 7.4, CL NADPH(+)) [µL/min/mg]
CC(C)C[C@H]1C(=O)N(C)[C@@H](CC(C)C)C(=O)N[C@@H]([C@@H](C)O)C(=O)N(C)[C@@H](Cc2ccccc2)C(=O)N(C)[C@@H](CC(C)C)C(=O)N[C@H](C(=O)N(C)[C@@H](Cc2ccccc2)C(=O)N(C)[C@@H](Cc2ccccc2)C(=O)N[C@@H](C)C(=O)N2CCCCC2)CC(=O)N(C)[C@H](C)C(=O)N(C)[C@@H](Cc2ccccc2)C(=O)N(C)[C@@H](CC(C)C)C(=O)N[C@@H](C)C(=O)N1C [DP-207] ([dNMeA][NMeF][NMeL]A[NMeL][NMeL]T[NMeF][NMeL]D[NMeF][NMeF]A-Piperidide; lactam N-10) | 0.16 | 12 | – | – | –
CC(C)C[C@H]1C(=O)N[C@H](C(=O)N(C)[C@@H](Cc2ccccc2)C(=O)N(C)[C@@H](Cc2ccccc2)C(=O)N[C@@H](C)C(=O)N2CCCCC2)CC(=O)N[C@@H](C)C(=O)N(C)[C@@H](Cc2ccccc2)C(=O)N(C)[C@@H](CC(C)C)C(=O)N[C@@H]([C@@H](C)O)C(=O)N(C)[C@@H](C)C(=O)N(C)[C@@H](CC(C)C)C(=O)N[C@@H](C(C)C)C(=O)N1C [DP-208] (A[NMeF][NMeL]T[NMeA][NMeL]V[NMeL]D[NMeF][NMeF]A-Piperidide; lactam N-9) | 27 | 34 | – | – | –
CC(C)C[C@H]1C(=O)N[C@@H](C(C)C)C(=O)N(C)[C@@H](Cc2ccccc2)C(=O)NCC(=O)N[C@H](C(=O)N(C)[C@@H](Cc2ccccc2)C(=O)N(C)[C@@H](Cc2ccccc2)C(=O)N[C@@H](C)C(=O)N2CCCCC2)CC(=O)N[C@H](C)C(=O)N[C@@H]([C@@H](C)O)C(=O)N(C)[C@@H](C)C(=O)N(C)[C@@H](Cc2ccccc2)C(=O)N1C [DP-209] ([dA]T[NMeA][NMeF][NMeL]V[NMeF]GD[NMeF][NMeF]A-Piperidide; lactam N-9) | 42 | 98 | – | – | –
CC(C)C[C@H]1C(=O)N[C@H](C(=O)N(C)[C@@H](Cc2ccccc2)C(=O)N(C)[C@@H](Cc2ccccc2)C(=O)N[C@@H](C)C(=O)N2CCCCC2)CC(=O)N(C)[C@@H](C)C(=O)N(C)[C@@H](Cc2ccccc2)C(=O)N[C@@H]([C@@H](C)O)C(=O)N(C)[C@@H](C)C(=O)N(C)[C@@H](CC(C)C)C(=O)N(C)[C@@H](CC(C)C)C(=O)N[C@@H](C(C)C)C(=O)N1C [DP-211] ([NMeA][NMeF]T[NMeA][NMeL][NMeL]V[NMeL]D[NMeF][NMeF]A-Piperidide; lactam N-9) | 3.2 | 178 | – | – | –
CC(C)C[C@H]1C(=O)N(C)[C@@H](CC(C)C)C(=O)N[C@@H](C(C)C)C(=O)N[C@H](C(=O)N(C)[C@@H](Cc2ccccc2)C(=O)N(C)[C@@H](Cc2ccccc2)C(=O)N[C@@H](C)C(=O)N2CCCCC2)CC(=O)N(C)CCC(=O)N(C)[C@@H](C)C(=O)N(C)[C@@H](Cc2ccccc2)C(=O)N[C@@H]([C@@H](C)O)C(=O)N(C)CC(=O)N1C [DP-212] ([NMeβAla][NMeA][NMeF]T[Sar][NMeL][NMeL]VD[NMeF][NMeF]A-Piperidide; lactam N-9) | 29 | 27 | – | – | –
CC(C)C[C@H]1C(=O)N(C)[C@@H](Cc2ccccc2)C(=O)NCC(=O)N(C)[C@@H](Cc2ccccc2)C(=O)N(C)[C@@H](C)C(=O)N[C@@H]([C@@H](C)O)C(=O)N[C@H](C(=O)N(C)[C@@H](Cc2ccccc2)C(=O)N(C)[C@@H](Cc2ccccc2)C(=O)N[C@@H](C)C(=O)N2CCCCC2)CC(=O)N(C)[C@H](C)C(=O)N[C@@H](C(C)C)C(=O)N1C [DP-213] ([dNMeA]V[NMeL][NMeF]G[NMeF][NMeA]TD[NMeF][NMeF]A-Piperidide; lactam N-9) | 55 | 71 | – | – | –
CC(C)C[C@H]1C(=O)N[C@@H]([C@@H](C)O)C(=O)N(C)[C@@H](C)C(=O)N(C)[C@@H](CC(C)C)C(=O)N[C@@H](C(C)C)C(=O)N[C@H](C(=O)N(C)[C@@H](Cc2ccccc2)C(=O)N(C)[C@@H](Cc2ccccc2)C(=O)N[C@@H](C)C(=O)N2CCCCC2)CC(=O)N(C)[C@H](C)C(=O)N(C)[C@@H](Cc2ccccc2)C(=O)N(C)CC(=O)N1C [DP-214] ([dNMeA][NMeF][Sar][NMeL]T[NMeA][NMeL]VD[NMeF][NMeF]A-Piperidide; lactam N-9) | 34 | 33 | – | – | –
CC[C@H](C)[C@H]1C(=O)N[C@H](C(=O)N2CCCCC2)CC(=O)N[C@H](C)C(=O)N[C@@H]([C@@H](C)O)C(=O)N(C)[C@@H](Cc2ccccc2)C(=O)N[C@@H](CC(C)C)C(=O)N2CCC[C@H]2C(=O)N(C)[C@@H](C(C)C)C(=O)N[C@@H](Cc2ccccc2)C(=O)N(C)CC(=O)N(C)[C@@H](CC(C)C)C(=O)N[C@@H](C)C(=O)N1C [DP-215] ([dA]T[NMeF]LP[NMeV]F[Sar][NMeL]A[NMeI]D-Piperidide; lactam N-12) | 24 | 35 | – | – | –
CC[C@H](C)[C@H]1C(=O)N[C@H](C(=O)N2CCCCC2)CC(=O)N[C@H](C(C)C)C(=O)N[C@@H](CC(C)C)C(=O)N(C)[C@@H](Cc2ccccc2)C(=O)N[C@@H]([C@@H](C)O)C(=O)N(C)[C@@H](C)C(=O)N[C@@H](C(C)C)C(=O)N[C@@H](Cc2ccccc2)C(=O)N(C)[C@@H](CC(C)C)C(=O)N[C@@H](CC(C)C)C(=O)NCC(=O)N1C [DP-216] ([dV]L[NMeF]T[NMeA]VF[NMeL]LG[NMeI]D-Piperidide; lactam N-12) | 4.5 | 43 | – | – | –
CC[C@H](C)[C@H]1C(=O)N[C@@H](C)C(=O)N[C@@H](Cc2ccccc2)C(=O)N(C)[C@@H](Cc2ccccc2)C(=O)N[C@@H]([C@@H](C)O)C(=O)N(C)[C@@H](C)C(=O)N[C@@H](CC(C)C)C(=O)N[C@H](C(=O)N2CCCCC2)CC(=O)N[C@H](C(C)C)C(=O)N(C)[C@@H](C(C)C)C(=O)NCC(=O)N(C)[C@@H](CC(C)C)C(=O)N1C [DP-217] ([dV][NMeV]G[NMeL][NMeI]AF[NMeF]T[NMeA]LD-Piperidide; lactam N-12) | 38 | 37 | – | – | –
CC[C@H](C)[C@H]1C(=O)N[C@@H](CC(C)C)C(=O)N(C)[C@@H](C)C(=O)N(C)[C@@H](Cc2ccccc2)C(=O)NCC(=O)N[C@@H]([C@@H](C)O)C(=O)N[C@@H](Cc2ccccc2)C(=O)N(C)[C@@H](CC(C)C)C(=O)N2CCC[C@H]2C(=O)N[C@H](C(=O)N2CCCCC2)CC(=O)N[C@H](C(C)C)C(=O)N[C@@H](CC(C)C)C(=O)N1C [DP-218] ([dV]L[NMeI]L[NMeA][NMeF]GTF[NMeL]PD-Piperidide; lactam N-12) | 33 | – | 18 | – | –
CC[C@H](C)[C@H]1C(=O)N[C@@H](C)C(=O)N(C)[C@@H](CC(C)C)C(=O)N[C@@H]([C@@H](C)O)C(=O)N[C@@H](Cc2ccccc2)C(=O)N(C)[C@@H](Cc2ccccc2)C(=O)N(C)[C@@H](CC(C)C)C(=O)N[C@@H](COC(C)(C)C)C(=O)N(C)[C@@H](CC(C)C)C(=O)N(C)[C@@H](C)C(=O)N[C@H](C(=O)N2CCCCC2)CC(=O)N[C@H](C(C)C)C(=O)N1C [DP-219] ([dV][NMeI]A[NMeL]TF[NMeF][NMeL]S(tBu)[NMeL][NMeA]D-Piperidide; lactam N-12) | 1.3 | 49 | – | – | –
CC[C@H](C)[C@H]1C(=O)NCC(=O)N(C)[C@@H](CC(C)C)C(=O)N[C@@H](CC(C)C)C(=O)N[C@H](C(=O)N2CCCCC2)CC(=O)N(C)[C@@H](C)C(=O)N[C@@H](CC(C)C)C(=O)N(C)[C@@H](C)C(=O)N[C@@H]([C@@H](C)O)C(=O)N2CCC[C@H]2C(=O)N(C)[C@@H](Cc2ccccc2)C(=O)N[C@@H](Cc2ccccc2)C(=O)N1C [DP-220] ([NMeA]L[NMeA]TP[NMeF]F[NMeI]G[NMeL]LD-Piperidide; lactam N-12) | – | – | – | 33 | 26
CC[C@H](C)[C@H]1C(=O)N[C@@H](Cc2ccccc2)C(=O)N[C@H](C(=O)N2CCCCC2)CC(=O)N(C)CCC(=O)N(C)[C@@H](C(C)C)C(=O)N[C@@H](Cc2ccccc2)C(=O)N[C@@H](CC(C)C)C(=O)N(C)[C@@H](C)C(=O)N[C@@H]([C@@H](C)O)C(=O)N[C@@H](CC(C)C)C(=O)N(C)[C@@H](CC(C)C)C(=O)NCC(=O)N1C [DP-221] ([NMeβAla][NMeV]FL[NMeA]TL[NMeL]G[NMeI]FD-Piperidide; lactam N-12) | 31 | 75 | – | – | –
CC[C@H](C)[C@H]1C(=O)N[C@H](C(=O)N2CCCCC2)CC(=O)N(C)CCC(=O)N[C@@H](Cc2ccccc2)C(=O)N(C)[C@@H](CC(C)C)C(=O)N[C@@H](COC(C)(C)C)C(=O)NCC(=O)N2CCC[C@H]2C(=O)N[C@@H]([C@@H](C)O)C(=O)N[C@@H](CC(C)C)C(=O)N(C)[C@@H](C)C(=O)N[C@@H](Cc2ccccc2)C(=O)N1C [DP-222] ([NMeβAla]F[NMeL]S(tBu)GPTL[NMeA]F[NMeI]D-Piperidide; lactam N-12) | 16 | 30 | – | – | –
CC[C@H](C)[C@H]1C(=O)N[C@H](C(=O)N2CCCCC2)CC(=O)N(C)[C@H](C)C(=O)N(C)[C@@H](C(C)C)C(=O)N[C@@H](Cc2ccccc2)C(=O)N[C@@H](CC(C)C)C(=O)N(C)[C@@H](C)C(=O)N[C@@H]([C@@H](C)O)C(=O)N[C@@H](Cc2ccccc2)C(=O)N(C)[C@@H](CC(C)C)C(=O)N[C@@H](CC(C)C)C(=O)NCC(=O)N1C [DP-223] ([dNMeA][NMeV]FL[NMeA]TF[NMeL]LG[NMeI]D-Piperidide; lactam N-12) | 23 | 42 | – | – | –
